Experimental findings from ChEMBL document CHEMBL1127878, “Substituted lactam biphenyltetrazoles as angiotensin II mediated antihypertensives” (Bioorg Med Chem Lett, 1994) are described below.

The test system of experiment [1] is Rattus norvegicus. The experiment is described as follows: Tested for total duration time(BP) after peroral administration of 30 mg/kg of dose in spontaneously hypertensive rat. Format: functional. The settings on record: route oral.
In experiment [2] the test system is Rattus norvegicus. As to the kind of experiment: Tested for total onset time(BP) after peroral administration of 30 mg/kg of dose in spontaneously hypertensive rat. The class given is functional. The settings on record: route oral.
In experiment [3] the test system is Rattus norvegicus. As to the kind of experiment: Tested for percent of maximal blood pressure drop after peroral administration of 30 mg/kg in spontaneously hypertensive rat. The class given is functional. To be noted: route oral.
In experiment [4] the test system is Rattus norvegicus. The experiment is described as follows: Tested for percent of maximal blood pressure drop in high renin rat after peroral administration of 30 mg/kg of dose. The settings on record: route oral. The class given is functional.
For experiment [5], the target named is T1, Type-1 angiotensin II receptor (Oryctolagus cuniculus, UniProt P34976).
T1 sequence (P34976 whole entry): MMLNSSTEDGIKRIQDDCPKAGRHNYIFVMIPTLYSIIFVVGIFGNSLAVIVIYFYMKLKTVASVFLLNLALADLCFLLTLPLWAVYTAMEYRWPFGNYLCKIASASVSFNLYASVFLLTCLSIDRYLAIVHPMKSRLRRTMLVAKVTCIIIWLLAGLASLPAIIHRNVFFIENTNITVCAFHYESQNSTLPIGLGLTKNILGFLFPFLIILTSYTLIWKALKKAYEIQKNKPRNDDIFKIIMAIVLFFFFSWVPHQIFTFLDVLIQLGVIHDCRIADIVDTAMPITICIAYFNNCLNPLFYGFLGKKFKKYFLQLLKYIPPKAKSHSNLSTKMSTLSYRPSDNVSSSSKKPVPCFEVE
The experiment is described as follows: In vitro binding affinity against Angiotensin II receptor in rabbit aorta rings. To be noted: read-out: pA2 (converted). The class given is tissue-based.

Experiment [6] deals with Rattus norvegicus. The experiment is described as follows: Tested for total onset time(BP) after peroral administration of 30 mg/kg of dose in high renin rat. Format: functional. The settings on record: route oral.
Experiment [7] relates to Rattus norvegicus. The experiment is described as follows: Tested for total duration time(BP) after peroral administration of 30 mg/kg of dose in high renin rat. The class given is functional. The settings on record: route oral.
The subject of experiment [8] is Rattus norvegicus. The experiment is described as follows: Dose (iv) required for graded reduction in mean arterial blood pressure in spontaneously hypertensive rat (also, 10 mg/kg). The class given is functional.

Molecule `CCOC(=O)/C=C1\C2C3C=CC(CCC3)C2C(=O)N1Cc1ccc(-c2ccccc2-c2nn[nH]n2)cc1` (configuration not stated) registered a Duration in the experiment with Rattus norvegicus [1] of 24 h. This molecule showed an Onset with Rattus norvegicus [2] of 0.25 h. For the same molecule, the Max drop in the experiment with Rattus norvegicus [3] and in the experiment with Rattus norvegicus [4] was 96% in each case. Also, the Kb in experiment [5] was 20 nM.
`CCOC(=O)/C=C1\C2C3CCC(C3)C2C(=O)N1Cc1ccc(-c2ccccc2-c2nn[nH]n2)cc1` (configuration not stated) returned an Onset with Rattus norvegicus [6] of 1 h. In addition, the Duration in the experiment on Rattus norvegicus [7] stood at 17 h. The molecule also returned a Max drop with Rattus norvegicus [4] of 26%. For the same molecule, the Kb in experiment [5] is 1 nM.
On the same counts, the results for `CCOC(=O)/C=C1\CC2(CCCC2)C(=O)N1Cc1ccc(-c2ccccc2-c2nn[nH]n2)cc1` are 2 h, 3 h, 20% and 3.16 nM.
As for `CCOC(=O)/C=C1\CC(C)(C(C)C)CC(=O)N1Cc1ccc(-c2ccccc2-c2nn[nH]n2)cc1` (configuration not stated), the Duration in the experiment with Rattus norvegicus [1] worked out at 5 h. In the experiment on Rattus norvegicus [2], this molecule displayed an Onset of 1.25 h. Also, the Max drop in the experiment with Rattus norvegicus [3] and in the experiment with Rattus norvegicus [4] was 70% each time. In addition, in experiment [5], the Kb was 15.8 nM.
`CCCCC1(C)CC(=O)N(Cc2ccc(-c3ccccc3-c3nn[nH]n3)cc2)/C(=C/C(=O)OCC)C1` (configuration not stated) gave a Duration in the experiment with Rattus norvegicus [1] of 24 h. Besides, the Onset in the experiment with Rattus norvegicus [2] came to 0.5 h. In addition, the Max drop in the experiment with Rattus norvegicus [3] and with Rattus norvegicus [4] was 98% throughout. Moreover, the Kb in experiment [5] is 31.6 nM.
As for `CCOC(=O)/C=C1\CC2(CCCCCC2)C(=O)N1Cc1ccc(-c2ccccc2-c2nn[nH]n2)cc1`, the Duration is 16 h in the experiment on Rattus norvegicus [1] and 23 h in the experiment on Rattus norvegicus [7]. Also, the Onset in the experiment with Rattus norvegicus [6] was determined as 0.75 h; with Rattus norvegicus [2], 1.5 h. The Max drop in the experiment with Rattus norvegicus [3] amounted to 80%; in the experiment with Rattus norvegicus [4] it was 31%. In experiment [5], the Kb was 3.98 nM.
As to `CCOC(=O)/C=C1\CC2(CCCCC2)C(=O)N1Cc1ccc(-c2ccccc2-c2nn[nH]n2)cc1`, in the experiment on Rattus norvegicus [6], the Onset was determined as 1 h. Also, the Duration in the experiment with Rattus norvegicus [7] is 17 h. This molecule also came in with a Max drop with Rattus norvegicus [4] of 26%. The Kb in experiment [5] was 12.6 nM.
In the case of `CCCC1(CC)CC(=O)N(Cc2ccc(-c3ccccc3-c3nn[nH]n3)cc2)/C(=C/C(=O)OCC)C1` (configuration not stated), the Duration in the experiment with Rattus norvegicus [1] came out at 6 h. The same molecule yielded an Onset in the experiment with Rattus norvegicus [2] of 3 h. For the same molecule, the Max drop with Rattus norvegicus [3] and in the experiment with Rattus norvegicus [4] was 18% each time. The Kb in experiment [5] was 12.6 nM.
`CCOC(=O)/C=C1\CC2(CCCC2)CC(=O)N1Cc1ccc(-c2ccccc2-c2nn[nH]n2)cc1` had an Onset with Rattus norvegicus [6] of 2.5 h. Besides, the Duration in the experiment with Rattus norvegicus [7] was 21 h. In the experiment with Rattus norvegicus [4], this molecule showed a Max drop of 46%. For the same molecule, in experiment [5], the Kb is 12.6 nM.
For `CCOC(=O)/C=C1\CC(C)(C)CC(=O)N1Cc1ccc(-c2ccccc2-c2nn[nH]n2)cc1`, the Onset in the experiment on Rattus norvegicus [6] turned out to be 2 h. Besides, in the experiment on Rattus norvegicus [7], the Duration was 5 h. In addition, the Max drop in the experiment on Rattus norvegicus [4] worked out at 17%. The Kb in experiment [5] is 39.8 nM.
In the experiment on Rattus norvegicus [1], `CCOC(=O)/C=C1\CC2(CCCCC2)CC(=O)N1Cc1ccc(-c2ccccc2-c2nn[nH]n2)cc1` showed a Duration of 8 h. Also, the Onset in the experiment on Rattus norvegicus [2] amounted to 0.25 h. The Max drop in the experiment with Rattus norvegicus [3] and in the experiment with Rattus norvegicus [4] was 100% throughout. The Kb in experiment [5] was 5.01 nM.
As to `CCCCC1(CC)CC(=O)N(Cc2ccc(-c3ccccc3-c3nn[nH]n3)cc2)/C(=C/C(=O)OCC)C1` (configuration not stated), in the experiment with Rattus norvegicus [1], the Duration was 8 h. The molecule further gave an Onset in the experiment with Rattus norvegicus [2] of 0.25 h. Also, the Max drop in the experiment on Rattus norvegicus [3] and in the experiment with Rattus norvegicus [4] was 55% throughout. Moreover, the Kb in experiment [5] is 100 nM.
As for `CCOC(=O)/C=C1\C2C3C=CC(CC3)C2C(=O)N1Cc1ccc(-c2ccccc2-c2nn[nH]n2)cc1` (stereo in doubt; 5), the Onset in the experiment with Rattus norvegicus [6] (30 mg/kg) worked out at 1.75 h. The Duration in the experiment with Rattus norvegicus [7] (30 mg/kg) was determined as 17 h. In the experiment on Rattus norvegicus [4] (30 mg/kg), the Max drop is recorded as 29%. Besides, in experiment [5], the Kb is 6.31 nM.
With `CCOC(=O)/C=C1\C2C3C=CC(CC3)C2C(=O)N1Cc1ccc(-c2ccccc2-c2nn[nH]n2)cc1` (stereo in doubt; 7), the Duration in the experiment with Rattus norvegicus [1] was 13 h; with Rattus norvegicus [7] (30 mg/kg), 10 h. Moreover, the Onset in the experiment on Rattus norvegicus [6] (30 mg/kg) was determined as 0.25 h; in the experiment on Rattus norvegicus [2], 1 h. The results for the Max drop with Rattus norvegicus [3] and with Rattus norvegicus [4] (30 mg/kg) were 86% and 43%, respectively. Moreover, in experiment [5], the Kb was 10 nM.
As to `CCOC(=O)/C=C1\CC(C)(CC)CC(=O)N1Cc1ccc(-c2ccccc2-c2nn[nH]n2)cc1` (stereo in doubt; 9), the Duration in the experiment on Rattus norvegicus [1] (30 mg/kg) is 24 h; with Rattus norvegicus [7], less than 24 h. Further, the Onset in the experiment with Rattus norvegicus [6] and with Rattus norvegicus [2] (30 mg/kg) was 0.25 h each time. The Dose in the experiment with Rattus norvegicus [8] is 3 mg/kg. The Max drop in the experiment on Rattus norvegicus [3] (30 mg/kg) and with Rattus norvegicus [4] (30 mg/kg) was 100% each time. Further, the Kb in experiment [5] is 1 nM.
With `CCOC(=O)/C=C1\CC(CC)(CC)CC(=O)N1Cc1ccc(-c2ccccc2-c2nn[nH]n2)cc1` (stereo in doubt; 11), the Duration with Rattus norvegicus [1] (30 mg/kg) worked out at 15 h. In the experiment on Rattus norvegicus [2] (30 mg/kg), this molecule gave an Onset of 0.75 h. Also, the Max drop in the experiment with Rattus norvegicus [3] (30 mg/kg) and with Rattus norvegicus [4] (30 mg/kg) was 35% throughout. Also, the Kb in experiment [5] was 3.98 nM.
As for `CCOC(=O)/C=C1\CC(C)(CC)CC(=O)N1Cc1ccc(-c2ccccc2-c2nn[nH]n2)cc1` (stereo in doubt; 13), the Duration in the experiment on Rattus norvegicus [1] (30 mg/kg) was found to be 16 h. This molecule also yielded an Onset in the experiment with Rattus norvegicus [2] (30 mg/kg) of 0.5 h. The Max drop in the experiment with Rattus norvegicus [3] (30 mg/kg) and in the experiment on Rattus norvegicus [4] (30 mg/kg) was 58% in each case. The Kb in experiment [5] is 2.51 nM.
Turning to `CCOC(=O)/C=C1\CC(CC)(CC)CC(=O)N1Cc1ccc(-c2ccccc2-c2nn[nH]n2)cc1` (stereo in doubt; 16), the Duration with Rattus norvegicus [1] (30 mg/kg) was 24 h. Further, the Onset in the experiment on Rattus norvegicus [2] (30 mg/kg) was determined as 0.25 h. The Max drop with Rattus norvegicus [3] (30 mg/kg) and with Rattus norvegicus [4] (30 mg/kg) was 100% throughout. Also, the Kb in experiment [5] was 7.94 nM.
As for `CCCCc1nc(Cl)c(CO)n1Cc1ccc(-c2ccccc2-c2nnn[nH]2)cc1` [LOSARTAN], the Duration in the experiment on Rattus norvegicus [1] and with Rattus norvegicus [7] was 24 h each time. For the same molecule, the Onset with Rattus norvegicus [6] and with Rattus norvegicus [2] was 2 h each time. The Max drop with Rattus norvegicus [3] and in the experiment on Rattus norvegicus [4] was 100% in each case.
